Publication PMC9046208, “Foldamers reveal and validate therapeutic targets associated with toxic α-synuclein self-assembly” (Nature Communications, 2022)

Assays:
[1] = target: T1, αS2 seed-catalyzed aggregation (Homo sapiens, UniProt P37840, DEL15-23); assay: Seed-catalyzed ThT aggregation assay (10% WT αS seeds), αS2; assay type: biochemical; settings: αS2, equimolar ratio
T1 construct: made in house
Experimental: Seed-catalyzed αS aggregation assay was performed similarly to a previously described protocol. Briefly, 100 μM monomeric WT αS solution (200 μL, in 1x PBS buffer) was placed into a ThermoMixer (Eppendorf, Hamberg, Germany) and shook for five days at a rate of […] and 37 °C. The solution was sonicated for 10 min and used as αS seeds. The seed-catalyzed aggregation of WT αS/ αS variants was performed by adding αS seeds (10% seeds, αS in monomeric concentration, v/v) into 140 μL of fresh 100 μM WT αS/ αS variants solution and aggregation was started with constant shaking at a rate of […] and 37 °C. The aggregation of proteins was monitored at the indicated times (See the main manuscript) using the above-mentioned method.
The ThT aggregation assay for each protein (WT αS and αS variants) in the presence of SK-129 was carried out the above-mentioned method. SK-129 (from 10 mM stock solution in DMSO) was added at an equimolar ratio (1% DMSO, v/v) to the proteins at the start of the aggregation experiment. The concentration of DMSO was kept constant (1%, v/v) in protein (WT αS and αS variants), control, and protein+molecule solutions. The kinetic profiles of protein aggregation were processed using OriginPro software (Version 9.1). Kinetic curves were fit using a built-in sigmoidal fit in the OriginLab.

αS oligomers = target: T2, αS oligomers (Homo sapiens, UniProt P37840); assay: Gel shift assay of αS supernatant (oligomers); assay type: biochemical; settings: 70 µM αS, 0.1, 0.2, 0.5 mol eq. ligand, 7 days
T2 construct: made in house; host or cells: Escherichia coli BL21(DE3), periplasm
Experimental: Supplementary Fig. 8. Gel-shift images of αS (70 µM) incubated in the absence (lane 2) and presence of SK-129 (a) and EGCG (b) at sub-stoichiometric ratios (0.1, 0.2, 0.5 mol eq.) for 7 days at 370C with constant shaking. The solutions of αS in the absence and presence of ligands were centrifuged and the supernatant was used for the gel shift assay. The arrows indicate the formation of various αS structures. The gel shift assay of the supernatant of the αS aggregated […]
fibers. Most of the αS was found in the supernatant as a mo nomer and a dimer in the presence of […]
their formation. The gel experiments were conducted at least two times to confirm the reproducibility of the data.
(1 picture or pasted object on this page, not shown here)

[2] = Parallel artificial membrane permeability assay (PAMPA); assay type: in vitro ADME; settings: 4% lecithin in dodecane; for permeability Pe: 1x PBS, 500 μM donor, RT, 18 h, UV absorbance
Experimental: A parallel artificial membrane permeability assay (PAMPA) Kit (BioAssay Systems, Hayward, CA) was used to measure the membrane permeability of SK-129 according to the manufacturer’s protocol. Briefly, a 4% lecithin solution (LS) was prepared in dodecane and solubilized with constant sonication for 20 min. Then, 5 µL of LS was placed on the donor plate membranes. A 300 μL 1x PBS buffer was applied to the acceptor plate. The solutions of SK-129 and various permeability controls (Highly soluble, medium soluble and low soluble) molecules were added to donor plates (200 μL and 500 μM). The donor plate was placed in the acceptor plate and incubated at RT for 18 h. Then the solutions were removed from the acceptor plate and placed in a clear-bottom 96-well plate (Corning Inc., Corning, NY) and absorbance was recorded at 360 nm for SK-129 and 275 nm for standards. The permeability was calculated using Eq. 2:2 Pe=C×−ln1−ODA/ODEcm/s Where the permeability rate C is 7.72 × 10^−6, ODA is the absorbance of acceptor solution and ODE is absorbance of equilibrium standard.

NL5901 = assay: Motility (activity counts, WMicroTracker ARENA) of C elegans NL5901; assay type: in vivo; settings: NL5901, 15 µM SK-129 at the larval stage
Experimental: The assay was carried out based on a previous protocol[57] with slight modifications. On day one, N2 and NL5901 strains were synchronized through the bleaching process involving egglay and the incubation of the eggs at an ambient temperature (~23 °C) on a solution of 3 mL NGM media in 60 mm culture plates (CytoOne, USA Scientific, Ocala, FL). The plates were seeded with 300 µL OP50 at an O.D. of 0.5 for 30 h. Simultaneously, a solution of 15 µM SK-129 (Stock solution concentration = 10 mM in DMSO) was made in M9 buffer and added to two sterilized 35 mm NGM solid media plates (Fisher Scientific, Pittsburgh, PA). The plates were already containing 2 mL of NGM solid media and 75 µM Fluorodeoxyuridine (FUDR) to prevent offspring in the worms. On day two, M9 buffer was used to transfer the worms from 60 mm NGM plates into 35 mm FUDR and SK-129 containing solid media plates (Fisher Scientific, Pittsburgh, PA) and incubated up to day three on these plates. On day four, liquid media was prepared according to the previous protocol[69] with some modifications. […] On day five, motility assay was conducted for worms under different conditions in duplicate using a WMicroTracker Arena plate reader (Phylumtech, Argentina) at ~23 °C for 1 h per day over a period of 12 days. […]

COC(=O)c1cc(OCC(=O)O)c2cccc(NC(=O)c3cc(OC(C)C)c4cccc(NC(=O)c5cc(OCC(=O)O)c6cccc(NC(=O)c7cc(OC(C)C)c8cccc([N+](=O)[O-])c8n7)c6n5)c4n3)c2n1 [SK-129]
effect on seed-catalyzed aggregation [1]: wholly suppressed | αS species in gel shift assay (αS oligomers): potently inhibits αS aggregation | membrane permeation [2]: efficiently permeate cell membranes | permeability Pe ([2]; trial 1): 4.75 ×10⁻⁶ cm/s | permeability Pe ([2]; trial 2): 4.45 ×10⁻⁶ cm/s | permeability Pe ([2]; trial 3): 4.64 ×10⁻⁶ cm/s | permeability Pe ([2]; trial 4): 4.65 ×10⁻⁶ cm/s | permeability Pe ([2]; trial 5): 4.64 ×10⁻⁶ cm/s | permeability Pe ([2]; trial 6): 4.36 ×10⁻⁶ cm/s | permeability Pe ([2]; trial 7): 4.67 ×10⁻⁶ cm/s | permeability Pe ([2]; trial 8): 4.79 ×10⁻⁶ cm/s | overall activity (motility) (NL5901): significant improvement in the overall activity
